Assay type in all cases: in vivo
The subject of test [1] is Rice (cultivar: Nipponbare). Kind of test: Test Example 5: reduction of low-temperature stress by treatment of rice seeds. The following applies: rice seed treatment, low-temperature stress 4° C. 5 days, then 12 days at 25° C. How it is done:
Evaluation Test for Reduction of Low-Temperature Stress by Treatment of Rice Seeds Rice (cultivar: Nipponbare) A blank slurry solution containing 5% (V/V) color coat red (Becker Underwood, Inc.), 5% (V/V) CF-Clear (Becker Underwood, Inc.) and 1% Maxim XL (Syngenta) was prepared. A slurry solution was prepared by dissolving the present compound 1 in the blank slurry solution such that 5 g or 50 g of the compound is applied to each 100 kg of rice seeds. In a 15-ml centrifuge tube (manufactured by AGC TECHNO GLASS CO., LTD.), 0.1 ml of the slurry solution was placed for each 3 g of rice seeds and stirred until the solution was dried, thereby coating the seeds. In addition, seeds were coated with the blank slurry solution and used as seeds for a non-treated group. A filter paper was placed on the bottoms of the holes of a plug tray having 406 holes, and the rice seeds treated above were sown on the filter paper. […] Twelve (12) days after the treatment, the fresh weight of the overground part of each plant was measured. The experiment was performed in four replications in each treated group and the average value was calculated. […]

In test [2] the test system is Rice (cultivar: Nipponbare). Kind of test: Test Example 6: reduction of drought stress by immersion treatment of rice. Particulars: hydroponic solution 10 ppm for 14 days, drought stress 2 days, then 14 days cultivation. How it is done: Evaluation Test for Reduction of Drought Stress by Immersion Treatment of Rice Rice (cultivar: Nipponbare) A necessary amount of rice seeds was immersed in an aqueous solution of 1,000 ppm of Benlate, and incubated at 30° C. overnight under dark conditions. The aqueous solution of Benlate was replaced with distilled water, and the seeds were further incubated at 30° C. overnight under dark conditions. A filter paper was placed on the holes of a plug tray having 406 holes, and the rice seeds treated as above were sown on the filter paper. To the rice seeds were added a kimura B solution for hydroponics (see Plant Science 119: 39-47 (1996)) at ½ concentration and a 1/10,000 volume of a DMSO solution containing the present compound 1 at 100,000 ppm, and cultivated for 14 days under the conditions of a temperature of 28° C. in daytime/23° C. in night, a humidity of 60%, an illuminance of 8500 lux, and a day length of 12 hours. […] Fourteen (14) days after the treatment, the fresh weight of the overground parts of five test plants in each treated group was measured. The experiment was performed in three replications in each treated group and the average value was calculated. […]

The next test relates to Wheat (cultivar: Apogee). Kind of test: Test Example 7: reduction of high-temperature stress by spraying treatment of wheat. Particulars: spray solution 100 ppm, high-temperature stress 36° C./32° C. 7 days, 60 days after sowing. How it is done: Evaluation Test for Reduction of High-Temperature Stress by Spraying Treatment of Wheat
Five wheat seeds were sown in the culture soil (AISAI) in each plastic pot and cultivated for 28 days in an artificial weather control room under the conditions of a temperature of 18° C. in daytime/15° C. in night, and an illuminance of 7,000 lux. Before the stress test, 3 individuals per pot were removed.
To 0.5 mg of the present compound 1 were added 120 mg of a mixture (weight ratio 1:1) of white carbon and ammonium polyoxyethylene alkyl ether sulfate and 300 μl of water. The mixture was finely ground by a wet grinding method to obtain a flowable formulation of the present compound 1. This flowable formulation was diluted with […] of water. The mixture was diluted with RINO (manufactured by NIHON NOHYAKU CO., LTD) as a spreading agent to 5,000-fold dilution to obtain a spray solution containing 100 ppm of the present compound 1. […]
After the high-temperature stress treatment, the plants were cultivated in an artificial weather control room under the conditions of a temperature of 18° C. in daytime/15° C. in night, and a illuminance of 7,000 lux. Then, 60 days after the sowing, the fresh weight of seeds in ears of the tested plants in 7 or 8 pots were measured, and the average values of the weight of seeds of ears per one pot (3 individuals) were calculated. […]

Data on one molecule can be found in patent publication US9119396B2, “Method for promoting plant growth” (SUMITOMO CHEMICAL COMPANY, LIMITED, priority 2011, dated 2015).

With `COC(=O)c1cc2cc(C(F)(F)F)ccc2s1` [compound 1], the “fresh weight of the overground part of plants vs non-treated group” value in test [1] (5 g per 100 kg of seeds), in test [1] (50 g per 100 kg of seeds) and in test [2] was “much heavier” in each case. The “fresh weight of seeds of ears vs non-treated group” value with Wheat (cultivar: Apogee) is recorded as “much larger”.
